Laboratory results as given in US20080274883A1, “Fungicidal Mixtures” (BASF AKTIENGESELLSCHAFT, priority 2004, published 2008).

Legend:
[1] = system: Erysiphe [syn. Blumeria] graminis form a specialis. tritici; assay: Efficacy against wheat mildew caused by Erysiphe [syn. Blumeria] graminis forma specialis tritici; format: in vivo; settings: wheat seedlings sprayed, dusted with spores 24 hours later, rated after 7 days, untreated control 90% infestation
Phytophthora infestans = format: in vivo, Phytophthora infestans on potted tomato plants; settings: 1 ppm; protective spray on tomato leaves, infested next day, rated after 6 days; efficiency by Abbot's formula vs untreated control (90% infestation)

Structure (SMILES): COc1ccc(C(=CC(=O)N2CCOCC2)c2ccc(F)cc2)cc1OC [flumorph (IIA), 4-[3-(3,4-dimethoxyphenyl)-3-(4-fluorophenyl)-1-oxo-2-propenyl]morpholine]
- Observed action (%) ([1]; 4 ppm): 0%

Structure (SMILES): COc1ccc(C(=CC(=O)N2CCOCC2)c2ccc(Cl)cc2)cc1OC [dimethomorph (II), 3-(4-chlorophenyl)-3-(3,4-dimethoxyphenyl)-1-morpholin-4-ylpropenone]
- Observed action (%) (Phytophthora infestans): 22%
- Observed action (%) ([1]; 4 ppm): 0%

Structure (SMILES): CO/C=C(/C(=O)OC)c1ccccc1CO/N=C(C)/C=C/c1ccc(Cl)cc1 [enestrobin (I), methyl 2-(2-[3-(4-chlorophenyl)-1-methyl-allylidenaminooxymethyl]phenyl)-3-methoxyacrylate]
- Observed action (%) (Phytophthora infestans): 0%
- Observed action (%) ([1]; 16 ppm): 33%
